l = locked nucleic acid (LNA); d = 2'-deoxy (DNA)
Assays:
[1] = molecular target: exonuclease free Klenow fragment DNA polymerase I (EFK) (Escherichia coli, UniProt P00582, D355A/E357A); conditions: 500 μM LNA NTP, 2 units EFK, 37° C., 3 min
Procedure: A primer extension assay was used to evaluate the LNA NTP's (see Example 123), ribonucleotides, as substrates for exonuclease free Klenow fragment DNA polymerase I (EFK). The assay used a ^33P 5′ end labelled 15mer primer hybridised to one of four different 24mer templates. The sequences of the primer and templates are (LNA monomer in bold):
One picomole ^33P labelled primer was hybridised to 2 picomoles of template in ×2 Klenow buffer. To this was added either 4 μM dNTPαS or 500 μM LNA NTP or a mixture of 4 μM dNTPαS and 500 μM LNA NTP. Two units of EFK DNA polymerase was added to each reaction. 2 mU inorganic pyrophosphatase was added to each of the reactions. Primer plus template plus enzyme controls were also carried out. All reactions were carried out in a total volume of 20 μl. The reactions were incubated at 37° C. for 3 min. Reactions were then stopped by the addition of 10 μl formamide EDTA stop solution. Reaction products were separated on a 19% polyacrylamide 7M urea gel and the product fragments sized by comparison with a ^33P labelled 8 to 32 base oligonucleotide ladder after exposure to Kodak Biomax autoradiography film.

[2] = molecular target: terminal deoxynucleotidyl transferase (TdT) (Bos taurus, UniProt P06526); experiment: Oligonucleotide tailing reaction with triphosphate as substrate; format: biochemical; conditions: 15mer primer, 25 U TdT, 32, 64 or 128 μM triphosphate, 90 min, 37° C.
Procedure: LNA-thymidine-5'-triphosphate (LNA-TTP) as a substrate for terminal deoxynucleotidyl transferase (TdT). In order to test the ability of the triphosphate of LNA-TTP (Example 123) to be accepted by terminal deoxynucleotidyl transferase as a substrate, an oligonucleotide tailing reaction was performed. A 15mer primer (sequence: [NT] ID NO:14) and a mixture of 8 to 32 base oligonucleotide markers were 5' end labelled with [γ^33P] ATP and T4 polynucleotide kinase. Reactions were boiled for 5 min after labelling to remove any PNK activity. Four picomoles of the labelled primer, 25 U terminal deoxynucleotidyl transferase and 32, 64 or 128 μM dTTP or LNA-TTP were incubated in 25 μl 100 mM cacodylate buffer pH 7.2, 2 mM CoCl2 and 0.2 mM 2-mercaptoethanol for 90 min at 37° C. […] Autoradiography using Biomax film was carried out on the dry gel.

[3] = system: human MCF-7 breast cancer cells
[4] = system: MCF-7 human breast cancer cells
[5] = system: MCF-7 human breast cancer cells; remark: listed apart in the source
[6] = system: Nras amplicons (Nras 910, Nras 600, Nras 200); experiment: Capture of Nras PCR amplicons by immobilised probes; format: binding, human; conditions: native amplicons; 1 pmol probe per well
Procedure: Three DIG labelled amplicons from Nras sequence (ref.: Nucleic Acid Research, 1985, Vol. 13, No. 14, p 52-55) were generated by PCR amplification as follows:
PCR reaction mixture for Nras amplicons: 2.3 μl human placental genomic DNA (440 ng/μl), 50 μl 10×PCR buffer (without MgCl2 Perkin Elmer), 30 μl 25 mM MgCl2, 50 μl dNTP-mix (2 mM dATP, dCTP, dGTP and 1.8 mM dTTP), 10 μl 1 mM Dig-11-dUTP, 10 μl 25 μM forward primer, 10 μl 25 μM reverse primer, 5 μl 5 U/μl AmpliTaq Gold (Perkin Elmer) and water ad 500 μl. PCR reaction: The above mixture was made for all the Nras PCR products. The only difference being reverse primer 910 bp, 600 bp or 200 bp added once at a time. The PCR mixtures were aliquoted into ten PCR tubes each and cycled in a Perkin Elmer 9600 at the following conditions: 95° C. 3 min; 55° C. 2 min, 72° C. 3 min, 95° C. 1 min (30 cycles); 55° C. 2 min, 72° C. 10 min and 4° C. soak. 10 μl from each PCR reaction was analysed on a standard agarose gel and the expected fragments of approximately 910 bp, 600 bp and 200 bp were observed. Assay conditions: Wells of a streptavidin coated micro-titer plate (Boehringer Mannheim; binding capacity of 20 pmol biotin per well) were incubated for 1 hour in 5×SSCT (0.75 M NaCl, 75 mM citrate, pH 7.0, 0.1% Tween 20) at 37° C. with either 1 pmol of DNA Nras Cap A (biotin-5′-TTCCACAGCACAA-3′) (SEQ ID NO:37), LNA/DNA Nras Cap A (biotin-5′-TTCCACAGCACAA-3′) (SEQ ID NO:38), LNA Nras Cap A (biotin-5′-TTCCACAGCACAA-3′) (SEQ ID NO:39), DNA Nras Cap B (biotin-5′-AGAGCCGATAACA-3′) (SEQ ID NO:40), LNA/DNA Nras Cap B (biotin-5′-AGAGCCGATAACA-3′) (SEQ ID NO:41) or LNA Nras Cap B (biotin-5′-AGAGCCGATAACA-3′) (SEQ ID NO:42); LNA nucleosides in bold. The Nras Cap A capture probes capture amplicons Nras 910, Nras 600 and Nras 200. Nras Cap B capture probes capture specific amplicons Nras 910 and Nras 600. After incubation with the different capture probes, the wells were washed in 5×SSCT and 5 μl native or denatured (95° C. 5 min and 10 min on ice) DIG-labelled amplicons (Nras 910, Nras 600 or Nras 200) in 95 μl 1×SSCT (0.15 M NaCl, 15 mM citrate, pH 7.0, 0.1% Tween 20) were added per well and incubated for 1 hour at 37° C. The wells were washed three times in phosphate buffered saline (1×PBST, 0.15 M Nat, pH 7.2, 0.05% Tween 20) and incubated 30 min at 37° C. with 200 μl peroxidase labelled anti-DIG antibodies (Boehringer Mannheim, diluted 1:1000 in 1×PBST). Finally the wells were washed three times in 1×PBST and assayed for peroxidase activity by adding 100 μl of substrate solution (0.1 M citrate-phosphate buffer pH 5.0, 0.66 mg/ml ortho-phenylenediamine dihydrochloride, 0.012% H2O2) the reaction was stopped after 9 min by adding 100 μl 0.5 M H2SO4 and diluted 4 times in H2SO4 before the absorbance at 492 nm was read in a micro-titer plate reader. […] We conclude that LNA modified oligos containing mixed LNA nucleosides (A, T, G or C LNA nucleosides) function efficiently in sequence specific capture of PCR amplicons when immobilised on a solid surface. We further conclude that LNA offers a means to construct capture probes that will function efficiently in amplicon capture without prior denaturation i.e. capture by strand displacement. This ability facilitates a significant simplification of current amplicon detection formats based on DNA.

Exonuclease III = Exonuclease III (Escherichia coli, UniProt P09030); conditions: for full length product left after the 5 minute incubation: 10 Units Exonuclease III, 37° C., 5 min, primer hybridised to template; for full length band, % of the signal: in the absence of the enzyme
[7] = system: terminal deoxynucleotidyl transferase (TdT); experiment: Tailing of primers with dATP; format: biochemical; conditions: 4 pmol primer, 25 U TdT, 16 μM dATP, 90 min, 37° C.
Procedure: The ability of terminal deoxynucleotidyl transferase (TdT) to tail LNA modified oligonucleotides depends on the design of the oligomer. The following 15mer primers and a mixture of 8 to 32 base oligonucleotide markers were 5′ end labelled with [γ^33P] ATP and T4 polynucleotide kinase (where LNA monomers are in bold):
Reactions were boiled for 5 min after labelling to remove any PNK activity. Four picomoles of each labelled primer, 25 U terminal deoxynucleotidyl transferase and 16 μM dATP were incubated in 25 μl 100 mM cacodylate buffer pH 7.2, 2 mM CoCl2 and 0.2 mM 2-mercapto-ethanol for 90 min at 37° C. The reactions were stopped by the addition of formamide stop solution and the reaction products run on a 19% polyacrylamide 7 M urea gel with the labelled markers. Autoradiography using Biomax film was carried out on the dry gel. […] Primer PZ2 (lane 5) was not extended under these reaction conditions. We conclude that the TdT enzyme will tolerate LNA monomers within the oligonucleotide, but not at the extreme 3′ end.

## Nc1ncnc2c1ncn2[C@@H]1O[C@@]2(COP(=O)(O)OP(=O)(O)OP(=O)(O)O)CO[C@@H]1[C@@H]2O [LNA ATP]
[1]
  incorporation into a DNA strand: efficiently incorporated to give the +1 product

## Nc1ccn([C@@H]2O[C@@]3(COP(=O)(O)OP(=O)(O)OP(=O)(O)O)CO[C@@H]2[C@@H]3O)c(=O)n1 [LNA CTP]
[1]
  incorporation into a DNA strand: efficiently incorporated to give the +1 product on Template 4

## Nc1nc2c(ncn2[C@@H]2O[C@@]3(COP(=O)(O)OP(=O)(O)OP(=O)(O)O)CO[C@@H]2[C@@H]3O)c(=O)[nH]1 [LNA GTP]
[1]
  incorporation into a DNA strand: able to produce the +1 product with efficient extension of the primer

## O=c1ccn([C@@H]2O[C@@]3(COP(=O)(O)OP(=O)(O)OP(=O)(O)O)CO[C@@H]2[C@@H]3O)c(=O)[nH]1 [LNA UTP]
[1]
  incorporation into a DNA strand: specifically incorporated as a “T”

## Cc1cn(C2OC3(COP(=O)(O)OP(=O)(O)OP(=O)(O)O)COC2C3O)c(=O)[nH]c1=O (stereo not drawn) [LNA-TTP, LNA-thymidine-5′-triphosphate]
[2]
  fraction of +1 product extended by a further base: ~50%
  primer extension product: extended by one base

## Cc1cn([C@H]2C[C@H](O)[C@@H](COP(=O)(O)OP(=O)(O)OP(=O)(O)O)O2)c(=O)[nH]c1=O [dTTP, reference compound]
[2]
  primer extension product: greater than 100 nucleotides

## AL16: LNA oligo 5′-d(TGT GTG AAA TTG TTA T)-3′ (SEQ ID NO:57); also fluorescein/FITC-labelled (DNA TGTGTGAAATTGTTAT; LNA-containing, positions not given here, fluorescein label)
[3]
  intracellular localisation: predominantly was localised in the nuclei of the cells
[4]
  number of green fluorescent cells after additional 3 days: appeared unaltered
[5]
  added radioactivity associated with cellular material: approximately 0.8%

## AL17: LNA oligo 5′-d(ATA AAG TGT AAA G)-3′ (SEQ ID NO:58); also fluorescein/FITC-labelled (DNA ATAAAGTGTAAAG; LNA-containing, positions not given here, fluorescein label)
[5]
  added radioactivity associated with cellular material: approximately 0.4%

## LNA Cap B: biotin-5′-AGAGCCGATAACA-3′ (SEQ ID NO:42), spiked with 12 LNA nucleosides (12 LNA nucleosides, positions not given here, 5' biotin)
[6]
  capture of specific amplicons without prior denaturation: capture very efficiently the specific amplicons without prior denaturation

## LNA Nras Cap A: biotin-5′-TTCCACAGCACAA-3′ (SEQ ID NO:39), spiked with 12 LNA nucleosides (LNA nucleosides spiked in, positions not given here, 5' biotin)
[6]
  capture of specific amplicons without prior denaturation: capture very efficiently the specific amplicons without prior denaturation

## LNA/DNA Nras Cap A: biotin-5′-TTCCACAGCACAA-3′ (SEQ ID NO:38), spiked with 4 LNA nucleosides (LNA nucleosides spiked in, positions not given here, 5' biotin)
[6]
  capture of specific amplicons without prior denaturation: capture the same amplicons with a lower efficiency

## LNA/DNA Nras Cap B: biotin-5′-AGAGCCGATAACA-3′ (SEQ ID NO:41), spiked with 4 LNA nucleosides (LNA nucleosides spiked in, positions not given here, 5' biotin)
[6]
  capture of specific amplicons without prior denaturation: capture the same amplicons with a lower efficiency

## ODN#10: oligodeoxynucleotide (SEQ ID NO:56), a 35-mer complementary to human Cathepsin D (DNA TTAACGTAGGTGCTGGACTTGTCGCTGTTGTACTT; DNA, backbone and methylation of C not given here) [reference compound]
[5]
  added radioactivity associated with cellular material: approximately 1.4%

## P2: 5′-GC ATG TGC TGG AGA T-3′ (SEQ ID NO: 11), DNA primer (DNA GCATGTGCTGGAGAT; DNA, backbone and methylation of C not given here) [reference compound]
Exonuclease III
  full length product left after the 5 minute incubation: 20%
  full length band, % of the signal: 99%

## PZ2: 5′-GC ATG TGC TGG AGA T-3′ (SEQ ID NO: 13), single LNA monomer at the 3′ end (DNA GCATGTGCTGGAGAT; sugars from the 5' end d14 l1, backbone and methylation of C not given here)
Exonuclease III
  full length product left after the 5 minute incubation: 62%
  full length band, % of the signal: 96%
[7]
  tail length: not extended
